Results taken from patent US11357230B2, “Herbicidal amides” (FMC Corporation, priority 2017, dated 2022).

How the values were obtained:
Type in all cases: in vivo
[1] = test system: ryegrass, Italian (Italian ryegrass, Lolium multiflorum); test: Test A preemergence, Italian ryegrass; conditions: approximately 10 d
From the text: (§1) Seeds of plant species selected from barnyardgrass (Echinochloa crus-galli), kochia (Kochia scoparia), ragweed (common ragweed, Ambrosia elatior), ryegrass, Italian (Italian ryegrass, Lolium multiflorum), foxtail, green (green foxtail, Setaria viridis), and pigweed (Amaranthus retroflexus) were planted into a blend of loam soil and sand and treated preemergence with a directed soil spray using test chemicals formulated in a non-phytotoxic solvent mixture which included a surfactant. At the same time, plants selected from these weed species and also wheat (Triticum aestivum), corn (Zea mays), blackgrass (Alopecurus myosuroides), and galium (catchweed bedstraw, Galium aparine) were planted in pots containing the same blend of loam soil and sand and treated with postemergence applications of test chemicals formulated in the same manner. Plants ranged in height from 2 to 10 cm and were in the one- to two-leaf stage for the postemergence treatment. Treated plants and untreated controls were maintained in a greenhouse for approximately 10 d, after which time all treated plants were compared to untreated controls and visually evaluated for injury. Plant response ratings, summarized in Table A, are based on a 0 to 100 scale where 0 is no effect and 100 is complete control. A dash (-) response means no test result.

[2] = test system: sedge, umbrella (small-flower umbrella sedge, Cyperus difformis); test: Test B flooded paddy test, umbrella sedge; conditions: 250 g ai/ha, Flood (paddy water), 13 to 15 d
Description: (§2) Plant species in the flooded paddy test selected from rice (Oryza sativa), sedge, umbrella (small-flower umbrella sedge, Cyperus difformis), ducksalad (Heteranthera limosa), and barnyardgrass (Echinochloa crus-galli) were grown to the 2-leaf stage for testing. At time of treatment, test pots were flooded to 3 cm above the soil surface, treated by application of test compounds directly to the paddy water, and then maintained at that water depth for the duration of the test. Treated plants and controls were maintained in a greenhouse for 13 to 15 d, after which time all species were compared to controls and visually evaluated. Plant response ratings, summarized in Table B, are based on a scale of 0 to 100 where 0 is no effect and 100 is complete control. A dash (-) response means no test result.

[3] = test system: ryegrass, Italian (Italian ryegrass, Lolium multiflorum); test: Test A postemergence, Italian ryegrass; conditions: approximately 10 d
From the text: as §1

[4] = test system: barnyardgrass (Echinochloa crus-galli); test: Test B flooded paddy test, barnyardgrass; conditions: 250 g ai/ha, Flood (paddy water), 13 to 15 d
Description: as §2

[5] = test system: Foxtail, Giant; test: Test A preemergence, giant foxtail; conditions: approximately 10 d
[6] = test system: ragweed (common ragweed, Ambrosia elatior); test: Test A postemergence, ragweed; conditions: approximately 10 d
From the text: as §1

[7] = test system: wheat (Triticum aestivum); test: Test A postemergence, wheat; conditions: approximately 10 d
From the text: as §1

[8] = test system: Foxtail, Giant; test: Test A postemergence, giant foxtail; conditions: approximately 10 d
[9] = test system: kochia (Kochia scoparia); test: Test A preemergence, kochia; conditions: approximately 10 d
From the text: as §1

[10] = test system: ducksalad (Heteranthera limosa); test: Test B flooded paddy test, ducksalad; conditions: 250 g ai/ha, Flood (paddy water), 13 to 15 d
Description: as §2

[11] = test system: ragweed (common ragweed, Ambrosia elatior); test: Test A preemergence, ragweed; conditions: approximately 10 d
From the text: as §1

[12] = test system: corn (Zea mays); test: Test A postemergence, corn; conditions: approximately 10 d
From the text: as §1

[13] = test system: kochia (Kochia scoparia); test: Test A postemergence, kochia; conditions: approximately 10 d
From the text: as §1

[14] = test system: barnyardgrass (Echinochloa crus-galli); test: Test A postemergence, barnyardgrass; conditions: approximately 10 d
From the text: as §1

[15] = test system: rice (Oryza sativa); test: Test B flooded paddy test, rice; conditions: 250 g ai/ha, Flood (paddy water), 13 to 15 d
Description: as §2

[16] = test system: pigweed (Amaranthus retroflexus); test: Test A preemergence, pigweed; conditions: approximately 10 d
From the text: as §1

[17] = test system: pigweed (Amaranthus retroflexus); test: Test A postemergence, pigweed; conditions: approximately 10 d
From the text: as §1

[18] = test system: galium (catchweed bedstraw, Galium aparine); test: Test A postemergence, galium; conditions: approximately 10 d
From the text: as §1

[19] = test system: barnyardgrass (Echinochloa crus-galli); test: Test A preemergence, barnyardgrass; conditions: approximately 10 d
From the text: as §1

[20] = test system: blackgrass (Alopecurus myosuroides); test: Test A postemergence, blackgrass; conditions: approximately 10 d
From the text: as §1

Compound	Plant response rating (0 to 100 scale, 0 is no effect, 100 is complete control) ([1]; 31 g ai/ha)	Plant response rating (0 to 100 scale, 0 is no effect, 100 is complete control) ([1]; 125 g ai/ha)	Plant response rating (scale of 0 to 100, 0 is no effect, 100 is complete control) [2]	Plant response rating (0 to 100 scale, 0 is no effect, 100 is complete control) ([3]; 31 g ai/ha)	Plant response rating (0 to 100 scale, 0 is no effect, 100 is complete control) ([3]; 125 g ai/ha)	Plant response rating (scale of 0 to 100, 0 is no effect, 100 is complete control) [4]	Plant response rating (0 to 100 scale, 0 is no effect, 100 is complete control) ([5]; 31 g ai/ha)	Plant response rating (0 to 100 scale, 0 is no effect, 100 is complete control) ([5]; 125 g ai/ha)	Plant response rating (0 to 100 scale, 0 is no effect, 100 is complete control) ([6]; 31 g ai/ha)	Plant response rating (0 to 100 scale, 0 is no effect, 100 is complete control) ([6]; 125 g ai/ha)	Plant response rating (0 to 100 scale, 0 is no effect, 100 is complete control) ([7]; 31 g ai/ha)	Plant response rating (0 to 100 scale, 0 is no effect, 100 is complete control) ([7]; 125 g ai/ha)	Plant response rating (0 to 100 scale, 0 is no effect, 100 is complete control) ([8]; 31 g ai/ha)	Plant response rating (0 to 100 scale, 0 is no effect, 100 is complete control) ([8]; 125 g ai/ha)	Plant response rating (0 to 100 scale, 0 is no effect, 100 is complete control) ([9]; 31 g ai/ha)	Plant response rating (0 to 100 scale, 0 is no effect, 100 is complete control) ([9]; 125 g ai/ha)	Plant response rating (scale of 0 to 100, 0 is no effect, 100 is complete control) [10]	Plant response rating (0 to 100 scale, 0 is no effect, 100 is complete control) ([11]; 31 g ai/ha)	Plant response rating (0 to 100 scale, 0 is no effect, 100 is complete control) ([11]; 125 g ai/ha)	Plant response rating (0 to 100 scale, 0 is no effect, 100 is complete control) ([12]; 31 g ai/ha)	other results
CNN=C1[C@H](C(=O)Nc2cccc(F)c2F)[C@@H](c2ccc(C(F)(F)F)cc2)CN1C (relative stereo) [Compound 3]	0	90	0	0	40	70	70	90	0	50	0	30	40	70	0	30	100	0	0	20	Plant response rating (0 to 100 scale, 0 is no effect, 100 is complete control) ([12]; 125 g ai/ha): 30; Plant response rating (0 to 100 scale, 0 is no effect, 100 is complete control) ([13]; 31 g ai/ha): 20; Plant response rating (0 to 100 scale, 0 is no effect, 100 is complete control) ([13]; 125 g ai/ha): 60; Plant response rating (0 to 100 scale, 0 is no effect, 100 is complete control) ([14]; 31 g ai/ha): 60; Plant response rating (0 to 100 scale, 0 is no effect, 100 is complete control) ([14]; 125 g ai/ha): 70; Plant response rating (scale of 0 to 100, 0 is no effect, 100 is complete control) [15]: 0; Plant response rating (0 to 100 scale, 0 is no effect, 100 is complete control) ([16]; 31 g ai/ha): 0; Plant response rating (0 to 100 scale, 0 is no effect, 100 is complete control) ([16]; 125 g ai/ha): 70; Plant response rating (0 to 100 scale, 0 is no effect, 100 is complete control) ([17]; 31 g ai/ha): 0; Plant response rating (0 to 100 scale, 0 is no effect, 100 is complete control) ([17]; 125 g ai/ha): 90; Plant response rating (0 to 100 scale, 0 is no effect, 100 is complete control) ([18]; 31 g ai/ha): 60; Plant response rating (0 to 100 scale, 0 is no effect, 100 is complete control) ([18]; 125 g ai/ha): 80; Plant response rating (0 to 100 scale, 0 is no effect, 100 is complete control) ([19]; 31 g ai/ha): 30; Plant response rating (0 to 100 scale, 0 is no effect, 100 is complete control) ([19]; 125 g ai/ha): 90; Plant response rating (0 to 100 scale, 0 is no effect, 100 is complete control) ([20]; 31 g ai/ha): 40; Plant response rating (0 to 100 scale, 0 is no effect, 100 is complete control) ([20]; 125 g ai/ha): 80
CN(C)N=C1[C@H](C(=O)Nc2cccc(F)c2F)[C@@H](c2ccc(C(F)(F)F)cc2)CN1C (relative stereo) [Compound 4]	0	10	0	0	20	55	50	90	0	30	0	20	0	80	0	30	75	0	0	0	Plant response rating (0 to 100 scale, 0 is no effect, 100 is complete control) ([12]; 125 g ai/ha): 20; Plant response rating (0 to 100 scale, 0 is no effect, 100 is complete control) ([13]; 31 g ai/ha): 0; Plant response rating (0 to 100 scale, 0 is no effect, 100 is complete control) ([13]; 125 g ai/ha): 40; Plant response rating (0 to 100 scale, 0 is no effect, 100 is complete control) ([14]; 31 g ai/ha): 0; Plant response rating (0 to 100 scale, 0 is no effect, 100 is complete control) ([14]; 125 g ai/ha): 60; Plant response rating (scale of 0 to 100, 0 is no effect, 100 is complete control) [15]: 0; Plant response rating (0 to 100 scale, 0 is no effect, 100 is complete control) ([16]; 31 g ai/ha): 0; Plant response rating (0 to 100 scale, 0 is no effect, 100 is complete control) ([16]; 125 g ai/ha): 60; Plant response rating (0 to 100 scale, 0 is no effect, 100 is complete control) ([17]; 31 g ai/ha): 0; Plant response rating (0 to 100 scale, 0 is no effect, 100 is complete control) ([17]; 125 g ai/ha): 70; Plant response rating (0 to 100 scale, 0 is no effect, 100 is complete control) ([18]; 31 g ai/ha): 60; Plant response rating (0 to 100 scale, 0 is no effect, 100 is complete control) ([18]; 125 g ai/ha): 70; Plant response rating (0 to 100 scale, 0 is no effect, 100 is complete control) ([19]; 31 g ai/ha): 50; Plant response rating (0 to 100 scale, 0 is no effect, 100 is complete control) ([19]; 125 g ai/ha): 90; Plant response rating (0 to 100 scale, 0 is no effect, 100 is complete control) ([20]; 31 g ai/ha): 30; Plant response rating (0 to 100 scale, 0 is no effect, 100 is complete control) ([20]; 125 g ai/ha): 50
CC(=O)NN=C1[C@H](C(=O)Nc2cccc(F)c2F)[C@@H](c2ccc(C(F)(F)F)cc2)CN1C (relative stereo) [Compound 5]	20	90	0	10	80	45	90	90	0	0	0	50	70	80	10	90	65	0	70	0	Plant response rating (0 to 100 scale, 0 is no effect, 100 is complete control) ([12]; 125 g ai/ha): 40; Plant response rating (0 to 100 scale, 0 is no effect, 100 is complete control) ([13]; 31 g ai/ha): 20; Plant response rating (0 to 100 scale, 0 is no effect, 100 is complete control) ([13]; 125 g ai/ha): 30; Plant response rating (0 to 100 scale, 0 is no effect, 100 is complete control) ([14]; 31 g ai/ha): 60; Plant response rating (0 to 100 scale, 0 is no effect, 100 is complete control) ([14]; 125 g ai/ha): 80; Plant response rating (scale of 0 to 100, 0 is no effect, 100 is complete control) [15]: 0; Plant response rating (0 to 100 scale, 0 is no effect, 100 is complete control) ([16]; 31 g ai/ha): 70; Plant response rating (0 to 100 scale, 0 is no effect, 100 is complete control) ([16]; 125 g ai/ha): 80; Plant response rating (0 to 100 scale, 0 is no effect, 100 is complete control) ([17]; 31 g ai/ha): 30; Plant response rating (0 to 100 scale, 0 is no effect, 100 is complete control) ([17]; 125 g ai/ha): 80; Plant response rating (0 to 100 scale, 0 is no effect, 100 is complete control) ([18]; 31 g ai/ha): 70; Plant response rating (0 to 100 scale, 0 is no effect, 100 is complete control) ([18]; 125 g ai/ha): 80; Plant response rating (0 to 100 scale, 0 is no effect, 100 is complete control) ([19]; 31 g ai/ha): 90; Plant response rating (0 to 100 scale, 0 is no effect, 100 is complete control) ([19]; 125 g ai/ha): 90; Plant response rating (0 to 100 scale, 0 is no effect, 100 is complete control) ([20]; 31 g ai/ha): 60; Plant response rating (0 to 100 scale, 0 is no effect, 100 is complete control) ([20]; 125 g ai/ha): 80
